Test results reported in ChEMBL document CHEMBL3390836, “Mannich- and LedererManasse-based analogues of the natural product S-(+)-curcuphenol as cancer proliferation and migration inhibitors” (Medchemcomm, 2012).

What was measured:
MDA-MB-231 [1] = assay: Antimigratory activity against human MDA-MB-231 cells after 24 hrs by wound-healing assay; format: functional, cell-based; conditions: MDA-MB-231, 24 h
MDA-MB-231 [2] = assay: Growth inhibition of human MDA-MB-231 cells after 72 hrs by MTT assay; format: functional, cell-based; conditions: MDA-MB-231, 72 h
MCF7 = assay: Growth inhibition of human MCF7 cells after 72 hrs by MTT assay; format: functional, cell-based; conditions: MCF7, 72 h
MDA-MB-231 [3] = assay: Cytotoxicity against human MDA-MB-231 cells assessed as growth inhibition after 24 hrs by MTT assay; format: cell-based; conditions: MDA-MB-231, 24 h

Row | IC50 (MDA-MB-231 [1]) [µM] | IC50 (MDA-MB-231 [2]) [µM] | IC50 (MCF7) [µM] | SMILES | IC50 (MDA-MB-231 [3]) [µM]
1 | 3.1 | 11.3 | 13.2 | CCOC(CCN1COc2c([C@@H](C)CCC=C(C)C)ccc(C)c2C1)OCC | > 20
2 | > 20 | 14.9 | 10.3 | CCOC(CCNCc1c(C)ccc([C@@H](C)CCC=C(C)C)c1O)OCC | > 20
